The target of data set [1] is T1, Pendrin (Homo sapiens) (UniProt O43511).
T1 sequence (whole entry): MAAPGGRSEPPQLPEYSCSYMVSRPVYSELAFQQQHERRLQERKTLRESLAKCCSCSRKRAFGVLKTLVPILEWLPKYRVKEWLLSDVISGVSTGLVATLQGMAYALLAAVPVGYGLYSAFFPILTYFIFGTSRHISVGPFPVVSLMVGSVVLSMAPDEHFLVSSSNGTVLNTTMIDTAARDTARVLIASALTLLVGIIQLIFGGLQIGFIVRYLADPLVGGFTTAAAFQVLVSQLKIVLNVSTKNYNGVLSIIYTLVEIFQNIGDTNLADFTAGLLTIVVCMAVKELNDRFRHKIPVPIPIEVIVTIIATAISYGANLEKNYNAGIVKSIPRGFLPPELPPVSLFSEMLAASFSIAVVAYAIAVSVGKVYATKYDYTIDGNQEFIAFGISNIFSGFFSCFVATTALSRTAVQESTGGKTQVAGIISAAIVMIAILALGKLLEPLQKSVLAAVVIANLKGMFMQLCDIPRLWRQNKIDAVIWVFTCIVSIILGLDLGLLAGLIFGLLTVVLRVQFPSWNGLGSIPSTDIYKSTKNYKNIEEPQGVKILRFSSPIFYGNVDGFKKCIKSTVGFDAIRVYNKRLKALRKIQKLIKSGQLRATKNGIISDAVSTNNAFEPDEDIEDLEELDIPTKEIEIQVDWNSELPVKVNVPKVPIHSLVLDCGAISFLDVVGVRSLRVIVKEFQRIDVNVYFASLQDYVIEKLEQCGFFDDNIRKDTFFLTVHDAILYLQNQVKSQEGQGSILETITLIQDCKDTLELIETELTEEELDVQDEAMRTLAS
The experiment in a line: Inhibition of human pendrin expressed in FRT cells co-expressing EYFP-HIF assessed as reduction in pendrin-mediated C17SCN(-) exchange incubated for 10 mins by pH-sensitive fluorescent probe BCECF-AM based fluorescence assay relative to control. It counts as cell-based.

Data set [2] concerns the target T1, Pendrin (Homo sapiens). The experiment in a line: (§1) Inhibition of human pendrin expressed in FRT cells co-expressing EYFP-HIF assessed as reduction in pendrin-mediated C17F exchange incubated for 10 mins by pH-sensitive fluorescent probe BCECF-AM based fluorescence assay relative to control. It is filed as cell-based.
The target of another data set is T2, Pendrin (Homo sapiens, UniProt O43511).
T2 sequence (O43511 whole entry): T1 sequence (whole entry)
The description is as §1. It counts as cell-based.

In data set [3] the target is T1, Pendrin (Homo sapiens). The experiment in a line: Reversible inhibition of human pendrin expressed in FRT cells co-expressing EYFP-HIF assessed as reduction in pendrin-mediated C17SCN(-) exchange incubated for 10 mins measured after wash out by pH-sensitive fluorescent probe BCECF-AM based fluorescence assay relative to control. It counts as cell-based.
In data set [4] the target is T1, Pendrin (Homo sapiens). The experiment in a line: Time dependent inhibition of human pendrin expressed in FRT cells co-expressing EYFP-HIF assessed as reduction in pendrin-mediated C17SCN(-) exchange by pH-sensitive fluorescent probe BCECF-AM based fluorescence assay relative to control. Particulars: TDE = time-dependent effect. It is filed as cell-based.
Data set [5] deals with T1, Pendrin (Homo sapiens). The experiment in a line: Inhibition of human pendrin expressed in FRT cells co-expressing EYFP-HIF assessed as reduction in pendrin-mediated C17HCO3(-) exchange by measuring reduction in cytoplasmic alkalinization exchange at 25 uM by pH-sensitive fluorescent probe BCECF-AM based fluorescence assay relative to control. It is filed as cell-based.

Data set [6] concerns Mus musculus. The experiment in a line: Effect on renal function in CD1 mouse assessed as effect on urine pH at 50 mg/kg, ip. It counts as ADME, organism-based. Particulars: in vivo.
For data set [7], the system named is Mus musculus. The experiment in a line: Effect on renal function in CD1 mouse assessed as effect on blood gas values at 50 mg/kg, ip. It counts as ADME, organism-based. Particulars: in vivo.
Data set [8] has as its system Mus musculus. The experiment in a line: Effect on renal function in CD1 mouse assessed as effect on urinary salt excretion at 50 mg/kg, ip measured at 3 hrs. The following applies: in vivo. It is filed as ADME, organism-based.
The subject of data set [9] is Mus musculus. The experiment in a line: Effect on renal function in C57B/6 mouse assessed as effect on urine pH at 50 mg/kg, ip. It counts as ADME, organism-based. Particulars: in vivo.
In data set [10] the test system is Mus musculus. The experiment in a line: Effect on renal function in C57B/6 mouse assessed as effect on blood gas values at 50 mg/kg, ip. It counts as ADME, organism-based. The following applies: in vivo.
Data set [11] concerns Mus musculus. The experiment in a line: Effect on renal function in C57B/6 mouse assessed as effect on urinary salt excretion at 50 mg/kg, ip measured at 3 hrs. It counts as ADME, organism-based. Particulars: in vivo.
Data set [12] relates to Mus musculus. The experiment in a line: Potentiation of 20 mg/kg, ip furosemide-induced acute diuretic action in CD1 mouse assessed as increase in urinary Na+ excretion at 50 mg/kg, ip measured at 3 hrs relative to control. It is filed as functional, organism-based.
The test system of data set [13] is Mus musculus. The experiment in a line: Potentiation of 20 mg/kg, ip furosemide-induced acute diuretic action in CD1 mouse assessed as effect on urinary K+ excretion at 10 mg/kg, ip measured at 3 hrs relative to control. It is filed as functional, organism-based.
Data set [14] deals with Mus musculus. The experiment in a line: Potentiation of 20 mg/kg, ip bid for 8 days furosemide-induced chronic diuretic action in CD1 mouse assessed as effect on urine osmolarity at 10 mg/kg, ip measured at 3 hrs relative to control. It is filed as functional, organism-based.
Data set [15] concerns Mus musculus. The experiment in a line: Potentiation of 20 mg/kg, ip bid for 8 days furosemide-induced chronic diuretic action in CD1 mouse assessed as increase in urinary Na+ excretion at 10 mg/kg, ip measured at 3 hrs relative to control. It counts as functional, organism-based.
Data set [16] relates to Mus musculus. The experiment in a line: Potentiation of 20 mg/kg, ip bid for 8 days furosemide-induced chronic diuretic action in CD1 mouse assessed as increase in urinary K+ excretion at 10 mg/kg, ip measured at 3 hrs relative to control. It is filed as functional, organism-based.
Data set [17] has as its target T1, Pendrin (Homo sapiens). The experiment in a line: Inhibition of human pendrin expressed in FRT cells co-expressing EYFP-HIF assessed as reduction in pendrin-mediated C17HCO3(-) exchange by measuring reduction in cytoplasmic alkalinization exchange at 2.5 uM by pH-sensitive fluorescent probe BCECF-AM based fluorescence assay relative to control. It is filed as cell-based.

Data set [18] addresses Cystic fibrosis transmembrane conductance regulator (Homo sapiens) (UniProt P13569). The experiment in a line: Inhibition of CFTR in human bronchial epithelial cells assessed as effect on short-circuit current at 25 uM pre-incubated for 30 mins.
The species named for data set [19] is Homo sapiens. The experiment in a line: Inhibition of potassium channel in human bronchial epithelial cells assessed as effect on short-circuit current at 25 uM pre-incubated for 30 mins.
The species entered for data set [20] is Homo sapiens. The experiment in a line: Effect on airway surface liquid pH in IL13-stimulated NHBE cells at 25 uM by pH-sensitive fluorophore BCECF based fluorescence based assay. It is filed as functional, cell-based.
For data set [21], the species on record is Homo sapiens. The experiment in a line: Effect on airway surface liquid depth in human CFBE at 25 uM by rhodamine B-dextran fluorescence based confocal microscopy. It counts as functional.
Data set [22] concerns the target T1, Pendrin (Homo sapiens). The experiment in a line: Inhibition of pendrin in human bronchial CFBE assessed as increase in airway surface liquid depth at 25 uM by rhodamine B-dextran fluorescence based confocal microscopy (reference value: -16 um).

As usually defined, the inhibition is how much of the control response was suppressed. The term IC50 denotes the concentration at which inhibition is half-maximal.

Structures are written as SMILES. Activity calls are given as the source filed them. The calls are words filed in the database; no cut-off is given here.

Chain of Cystic fibrosis transmembrane conductance regulator (Homo sapiens) (P13569 whole entry, looked up): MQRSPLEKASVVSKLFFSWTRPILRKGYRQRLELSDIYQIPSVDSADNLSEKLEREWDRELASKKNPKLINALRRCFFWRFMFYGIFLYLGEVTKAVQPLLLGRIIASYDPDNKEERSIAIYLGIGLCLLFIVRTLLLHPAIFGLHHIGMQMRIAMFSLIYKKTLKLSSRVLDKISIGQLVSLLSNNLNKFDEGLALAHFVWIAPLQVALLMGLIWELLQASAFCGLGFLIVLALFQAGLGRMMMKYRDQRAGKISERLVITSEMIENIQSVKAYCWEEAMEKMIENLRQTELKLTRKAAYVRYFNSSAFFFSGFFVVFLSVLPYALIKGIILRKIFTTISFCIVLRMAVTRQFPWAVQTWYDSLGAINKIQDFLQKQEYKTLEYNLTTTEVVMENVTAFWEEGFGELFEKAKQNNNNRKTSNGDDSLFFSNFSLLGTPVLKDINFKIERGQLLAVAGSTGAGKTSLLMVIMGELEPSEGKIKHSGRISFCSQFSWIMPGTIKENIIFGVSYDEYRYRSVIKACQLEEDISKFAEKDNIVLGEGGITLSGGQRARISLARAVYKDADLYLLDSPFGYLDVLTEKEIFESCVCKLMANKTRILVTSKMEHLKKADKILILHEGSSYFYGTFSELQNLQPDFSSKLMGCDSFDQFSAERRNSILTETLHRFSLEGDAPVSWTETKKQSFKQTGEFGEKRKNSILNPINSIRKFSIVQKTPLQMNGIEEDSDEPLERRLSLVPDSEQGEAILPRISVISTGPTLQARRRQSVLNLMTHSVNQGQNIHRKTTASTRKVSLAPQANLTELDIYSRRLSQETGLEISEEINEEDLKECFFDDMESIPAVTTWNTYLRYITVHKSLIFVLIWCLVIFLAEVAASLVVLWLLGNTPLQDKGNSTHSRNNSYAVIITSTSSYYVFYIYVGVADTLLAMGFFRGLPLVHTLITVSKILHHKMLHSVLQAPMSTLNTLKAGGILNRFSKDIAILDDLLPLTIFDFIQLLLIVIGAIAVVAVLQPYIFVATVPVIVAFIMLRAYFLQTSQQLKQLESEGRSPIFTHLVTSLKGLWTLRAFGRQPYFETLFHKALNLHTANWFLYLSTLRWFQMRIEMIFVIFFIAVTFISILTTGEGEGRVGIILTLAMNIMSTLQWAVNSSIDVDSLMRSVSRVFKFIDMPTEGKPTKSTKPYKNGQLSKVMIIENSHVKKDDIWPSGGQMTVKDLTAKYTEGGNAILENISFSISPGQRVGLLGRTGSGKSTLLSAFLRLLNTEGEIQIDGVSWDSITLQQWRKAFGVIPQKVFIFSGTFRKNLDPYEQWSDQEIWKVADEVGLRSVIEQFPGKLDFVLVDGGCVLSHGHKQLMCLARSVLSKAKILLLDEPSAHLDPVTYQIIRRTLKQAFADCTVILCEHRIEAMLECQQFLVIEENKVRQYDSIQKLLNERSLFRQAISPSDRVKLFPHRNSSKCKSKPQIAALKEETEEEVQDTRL

Regarding `Cc1n[nH]c(-c2cc(S(=O)(=O)NC3CCCc4ccccc43)c(C)s2)c1C` (configuration not stated), the inhibition result on Pendrin (Homo sapiens) [1] was “Dose-dependent effect”; at Pendrin (Homo sapiens) [2], “Dose-dependent effect”; at Pendrin (Homo sapiens) [4], “Tde”. Also, the IC50 on Pendrin is 9 µM. The inhibition result at Pendrin (Homo sapiens) [3] and on Pendrin (Homo sapiens) [5] was “Active” in each case. In addition, the Activity result in the data set with Mus musculus [6], with Mus musculus [7], in the data set on Mus musculus [8], in the data set on Mus musculus [9], in the data set with Mus musculus [10] and in the data set with Mus musculus [11] was “Non-Toxic” in each case. Moreover, the outcome in the data set on Mus musculus [12], in the data set with Mus musculus [15] and in the data set on Mus musculus [16] was Active. The result with Mus musculus [13] and with Mus musculus [14] was inactive.

Consider `Cn1nc(COc2cccc(F)c2)c2c1CCN(C(=O)Nc1ccc(Cl)cc1)C2`, for which the inhibition entry at Pendrin (Homo sapiens) [1] is “Dose-dependent effect”; at Pendrin (Homo sapiens) [2] it was “Dose-dependent effect”; at Pendrin (Homo sapiens) [4], “Tde”; on Pendrin (Homo sapiens) [17], 50%. Further, the inhibition result at Pendrin (Homo sapiens) [3] and at Pendrin (Homo sapiens) [5] was “Active” each time. For the same compound, the inhibition result (in [18]; in the data set listed under Homo sapiens [19]) was “inactive” each time. In addition, the result in the data set filed under Homo sapiens [20], in the data set filed under Homo sapiens [21] and in the data set on Mus musculus [14] was inactive. Besides, the Activity was -8 µm on Pendrin (Homo sapiens) [22]; “Non-Toxic” in the data set on Mus musculus [6]; “Non-Toxic” in the data set on Mus musculus [7]; “Non-Toxic” in the data set on Mus musculus [8]; “Non-Toxic” with Mus musculus [9]; “Non-Toxic” with Mus musculus [10]. In addition, the Activity entry with Mus musculus [11] is “Non-Toxic”. The outcome in the data set with Mus musculus [15] and in the data set on Mus musculus [16] was Active.
